The source of these data is ChEMBL document CHEMBL5608182, “Synthesis and evaluation of neuroactive steroids with novel pharmacophore at C-21 let identify a compound with advantageous PK profile and higher EC50 and Emax as PAM on GABAA receptor” (Eur J Med Chem, 2024).

Molecules are shown by their SMILES. pIC50: −log10 of the molar value.

Data set [1] has as its system Rattus norvegicus. Put plainly: Antiseizure activity in PTZ-induced male Sprague-Dawley rat acute seizure model assessed as increase in latency to tonic seizures at 12.2 micromol/kg, po pretreated for 1 hr followed by PTZ addition and measured after 60 mins (reference value: 77 +/- 13.4 sec). The note with it: dose 12.2 µmol/kg, time 120 min, 2 h. The class given is functional.

The nature of data set [2]: Toxicity in male Sprague-Dawley rat assessed as loss of righting reflex at 7.8 micromol/kg, ip measured within 4 hrs. The data set is classed as organism-based. The note with it: in vivo, dose 7.8 µmol/kg.
Data set [3] in a line: Toxicity in male Sprague-Dawley rat assessed as risk of consciousness loss by measuring time for first loss of righting reflex at 9.8 micromol/kg, ip measured within 4 hrs. The class given is organism-based. Conditions: in vivo, dose 9.8 µmol/kg.
A short description of data set [4]: Toxicity in male Sprague-Dawley rat assessed as risk of consciousness loss by measuring time for first loss of righting reflex at 12.2 micromol/kg, ip measured within 4 hrs. The data set is classed as organism-based. The note with it: in vivo, dose 12.2 µmol/kg.
The target in data set [5] is GABA-A receptor; anion channel. As to the kind of experiment: Inhibition of [35S]TBPS binding to GABA-A receptor in Sprague-Dawley rat brain cortical membrane incubated for 90 mins by liquid scintillation spectrometry. The class given is cell membranes, Cortex.
Data set [6] has as its system Rattus norvegicus. Put plainly: Antiseizure activity in PTZ-induced male Sprague-Dawley rat acute seizure model assessed as increase in latency to tonic seizures at 11.6 micromol/kg, po pretreated for 2 hrs followed by PTZ addition and measured after 60 mins (reference value: 77 +/- 13.4 sec). The class given is functional. The note with it: dose 11.6 µmol/kg, time 180 min, 3 h.

Data set [7] concerns Rattus norvegicus. As to the kind of experiment: Antiseizure activity in PTZ-induced male Sprague-Dawley rat acute seizure model assessed as increase in latency to tonic seizures at 23.2 micromol/kg, po pretreated for 2 hrs followed by PTZ addition and measured after 60 mins (reference value: 77 +/- 13.4 sec). The class given is functional. The note with it: dose 23.2 µmol/kg, time 180 min, 3 h.

Data set [8] in a line: Genotoxicity in Salmonella typhimurium TA97 assessed as induction of reverse mutation in presence of rat liver S9 fraction. The class given is toxicity, subcellular. The note with it: salmonella enterica subsp. enterica serovar typhimurium.
Data set [9] is described as follows: Genotoxicity in Salmonella typhimurium TA97 assessed as induction of reverse mutation in absence of rat liver S9 fraction. The class given is toxicity. Conditions: salmonella enterica subsp. enterica serovar typhimurium.
Data set [10] can be described thus: Genotoxicity in Salmonella typhimurium TA98 assessed as induction of reverse mutation in presence of rat liver S9 fraction. The data set is classed as toxicity, subcellular. The note with it: salmonella enterica subsp. enterica serovar typhimurium.
Data set [11] in a line: Genotoxicity in Salmonella typhimurium TA98 assessed as induction of reverse mutation in absence of rat liver S9 fraction. The class given is toxicity. Conditions: salmonella enterica subsp. enterica serovar typhimurium.
Data set [12] can be described thus: Genotoxicity in Salmonella typhimurium TA100 assessed as induction of reverse mutation in presence of rat liver S9 fraction. The note with it: salmonella enterica subsp. enterica serovar typhimurium. The data set is classed as toxicity, subcellular.
Data set [13] in a line: Genotoxicity in Salmonella typhimurium TA102 assessed as induction of reverse mutation in presence of rat liver S9 fraction. The data set is classed as toxicity, subcellular. Conditions: salmonella enterica subsp. enterica serovar typhimurium.
The nature of data set [14]: Genotoxicity in Salmonella typhimurium TA102 assessed as induction of reverse mutation in absence of rat liver S9 fraction. The class given is toxicity. Conditions: salmonella enterica subsp. enterica serovar typhimurium.
Data set [15] is described as follows: Genotoxicity in Salmonella typhimurium TA1535 assessed as induction of reverse mutation in presence of rat liver S9 fraction. The class given is toxicity, subcellular. Conditions: salmonella enterica subsp. enterica serovar typhimurium.
Data set [16] in a line: Genotoxicity in Salmonella typhimurium TA1535 assessed as induction of reverse mutation in absence of rat liver S9 fraction. The class given is toxicity. The note with it: salmonella enterica subsp. enterica serovar typhimurium.
Data set [17] can be described thus: Toxicity in male Sprague-Dawley rat assessed as loss of righting reflex at 23.3 micromol/kg, ip measured within 4 hrs. The class given is organism-based. Conditions: in vivo, dose 23.3 µmol/kg.
Data set [18] can be described thus: Toxicity in male Sprague-Dawley rat assessed as risk of consciousness loss by measuring time for first loss of righting reflex at 29.2 micromol/kg, ip measured within 4 hrs. The class given is organism-based. The note with it: in vivo, dose 29.2 µmol/kg.
The nature of data set [19]: Toxicity in male Sprague-Dawley rat assessed as risk of consciousness loss by measuring time for first loss of righting reflex at 36.6 micromol/kg, ip measured within 4 hrs. The class given is organism-based. The note with it: in vivo, dose 36.6 µmol/kg.

With `C[C@@]1(O)CC[C@H]2[C@H](CC[C@@H]3[C@@H]2CC[C@]2(C)[C@@H](C(=O)Cn4cc(C#N)cn4)CC[C@@H]32)C1` [ZURANOLONE], the figures for the Time (with Rattus norvegicus [1]; in data set [3]; in data set [4]) were 1639 s, 46 min and 33 min, respectively. The Activity entry in data set [2] is on record as “Non-Toxic”. In addition, the negative logarithm of the IC50 (pIC50) in data set [5] was 8.15.
In the case of `C[C@@]1(O)CC[C@H]2[C@H](CC[C@@H]3[C@@H]2CC[C@]2(C)[C@@H](C(=O)Cn4cnn(-c5cc(F)nc(F)c5)c4=O)CC[C@@H]32)C1`, the Time is 2686 s in the data set with Rattus norvegicus [6], 3600 s with Rattus norvegicus [7], 65 min in [18] and 57 min in data set [19]. Further, the Activity entry in data set [8], in data set [9], in data set [10], in data set [11], in data set [12] and in data set [13] was “Non-Toxic” throughout. In addition, the Activity result in data set [14], in data set [15], in data set [16] and in data set [17] was “Non-Toxic” in each case.
